Measured values as given in ChEMBL document CHEMBL1201862, “PubChem BioAssay data set” (2004).
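Exposure lasted 48 hours, with cells grown in 96-well plates and compounds tested at five concentrations. The concentration for 50% growth inhibition is given as GI50.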 The source made the active and inactive calls. Rule as the data show it: active = GI50 up to about 1.1 µM and inactive = higher.

How the values were obtained:
Experiment in all cases: DTP human tumour cell line panel, 48 h
M14 = tested on: M14
CAKI-1 = tested on: CAKI-1
HOP-62 = tested on: HOP-62
PC-3 = tested on: PC-3
HOP-92 = tested on: HOP-92
MOLT-4 = tested on: MOLT-4
MDA-MB-231 = tested on: MDA-MB-231
786-0 = tested on: 786-0
SF-295 = tested on: SF-295
HCT-15 = tested on: HCT-15
SK-MEL-5 = tested on: SK-MEL-5
K562 = tested on: K562
HCC 2998 = tested on: HCC 2998
SNB-75 = tested on: SNB-75
SN12C = tested on: SN12C
SR = tested on: SR
ACHN = tested on: ACHN
UACC-62 = tested on: UACC-62
OVCAR-3 = tested on: OVCAR-3
NCI-H226 = tested on: NCI-H226
LOX IMVI = tested on: LOX IMVI
BT-549 = tested on: BT-549
SK-OV-3 = tested on: SK-OV-3
RXF 393 = tested on: RXF 393
OVCAR-5 = tested on: OVCAR-5
EKVX = tested on: EKVX
SF-268 = tested on: SF-268
MCF7 = tested on: MCF7
Hs-578T = tested on: Hs-578T
RPMI-8226 = tested on: RPMI-8226
A549 = tested on: A549
HCT-116 = tested on: HCT-116
SNB-19 = tested on: SNB-19
SF-539 = tested on: SF-539
SW-620 = tested on: SW-620
T47D = tested on: T47D
COLO 205 = tested on: COLO 205
SK-MEL-28 = tested on: SK-MEL-28
NCI/ADR-RES = tested on: NCI/ADR-RES
DU-145 = tested on: DU-145
IGROV-1 = tested on: IGROV-1
NCI-H23 = tested on: NCI-H23
NCI-H460 = tested on: NCI-H460
A498 = tested on: A498
OVCAR-8 = tested on: OVCAR-8
SK-MEL-2 = tested on: SK-MEL-2
UO-31 = tested on: UO-31
NCI-H522 = tested on: NCI-H522
TK-10 = tested on: TK-10
Malme-3M = tested on: Malme-3M
OVCAR-4 = tested on: OVCAR-4
HT-29 = tested on: HT-29
MDA-MB-435 = tested on: MDA-MB-435
UACC-257 = tested on: UACC-257
U-251 = tested on: U-251
KM12 = tested on: KM12
CCRF-CEM = tested on: CCRF-CEM
HL-60 = tested on: HL-60
MDA-N = tested on: MDA-N

## O=C(Nc1ccc2oc(=O)c(C(=O)O)cc2c1)Oc1ccccc1
M14
  GI50: > 100 µM (inactive)
CAKI-1
  GI50: > 100 µM (inactive)
HOP-62
  GI50: > 100 µM (inactive)
PC-3
  GI50: > 100 µM (inactive)
HOP-92
  GI50: > 100 µM (inactive)
MOLT-4
  GI50: > 100 µM (inactive)
MDA-MB-231
  GI50: > 100 µM (inactive)
786-0
  GI50: > 100 µM (inactive)
SF-295
  GI50: > 100 µM (inactive)
HCT-15
  GI50: > 100 µM
SK-MEL-5
  GI50: > 100 µM (inactive)
K562
  GI50: > 100 µM (inactive)
HCC 2998
  GI50: 59.6 µM (inactive)
SNB-75
  GI50: > 100 µM (inactive)
SN12C
  GI50: > 100 µM (inactive)
SR
  GI50: > 100 µM (inactive)
ACHN
  GI50: > 100 µM (inactive)
UACC-62
  GI50: > 100 µM (inactive)
OVCAR-3
  GI50: > 100 µM (inactive)
NCI-H226
  GI50: > 100 µM (inactive)
LOX IMVI
  GI50: > 100 µM (inactive)
BT-549
  GI50: > 100 µM (inactive)
SK-OV-3
  GI50: > 100 µM (inactive)
RXF 393
  GI50: > 100 µM (inactive)
OVCAR-5
  GI50: > 100 µM (inactive)
EKVX
  GI50: > 100 µM (inactive)
SF-268
  GI50: > 100 µM (inactive)
MCF7
  GI50: > 100 µM (inactive)
Hs-578T
  GI50: > 100 µM (inactive)
RPMI-8226
  GI50: > 100 µM (inactive)
A549
  GI50: > 100 µM (inactive)
HCT-116
  GI50: > 100 µM (inactive)
SNB-19
  GI50: > 100 µM (inactive)
SF-539
  GI50: > 100 µM (inactive)
SW-620
  GI50: > 100 µM (inactive)
T47D
  GI50: > 100 µM (inactive)
COLO 205
  GI50: > 100 µM (inactive)
SK-MEL-28
  GI50: > 100 µM (inactive)
NCI/ADR-RES
  GI50: > 100 µM (inactive)
DU-145
  GI50: > 100 µM (inactive)
IGROV-1
  GI50: > 100 µM (inactive)
NCI-H23
  GI50: > 100 µM (inactive)
NCI-H460
  GI50: > 100 µM (inactive)
A498
  GI50: > 100 µM (inactive)
OVCAR-8
  GI50: > 100 µM (inactive)
SK-MEL-2
  GI50: > 100 µM (inactive)
UO-31
  GI50: > 100 µM (inactive)
NCI-H522
  GI50: > 100 µM (inactive)
TK-10
  GI50: > 100 µM (inactive)
Malme-3M
  GI50: > 100 µM (inactive)
OVCAR-4
  GI50: > 100 µM (inactive)
HT-29
  GI50: > 100 µM (inactive)
MDA-MB-435
  GI50: > 100 µM (inactive)
UACC-257
  GI50: > 100 µM (inactive)
U-251
  GI50: > 100 µM (inactive)
KM12
  GI50: > 100 µM (inactive)

## COc1cc(S(=O)(=O)Nc2ccc(-c3csc(N4C(=O)CSC4c4cccs4)n3)cc2)ccc1Cl (stereo not given)
M14
  GI50: 46.9 µM (inactive)
CAKI-1
  GI50: 79.8 µM (inactive)
HOP-62
  GI50: 42.7 µM (inactive)
PC-3
  GI50: 24.9 µM (inactive)
HOP-92
  GI50: 23.7 µM (inactive)
MOLT-4
  GI50: 8.67 µM (inactive)
786-0
  GI50: 28.4 µM (inactive)
SF-295
  GI50: > 100 µM (inactive)
HCT-15
  GI50: 32.6 µM
SK-MEL-5
  GI50: 64 µM (inactive)
K562
  GI50: 22.6 µM (inactive)
HCC 2998
  GI50: 15.6 µM (inactive)
SNB-75
  GI50: 20.2 µM (inactive)
SN12C
  GI50: 25.8 µM (inactive)
SR
  GI50: 29.7 µM (inactive)
ACHN
  GI50: > 100 µM (inactive)
OVCAR-3
  GI50: 51.5 µM (inactive)
NCI-H226
  GI50: 27.9 µM (inactive)
LOX IMVI
  GI50: 18.7 µM (inactive)
CCRF-CEM
  GI50: 4.98 µM (inactive)
BT-549
  GI50: 23.6 µM (inactive)
HL-60
  GI50: 14.5 µM (inactive)
SK-OV-3
  GI50: 56.4 µM (inactive)
RXF 393
  GI50: 11.2 µM (inactive)
OVCAR-5
  GI50: > 100 µM (inactive)
EKVX
  GI50: 50.8 µM (inactive)
SF-268
  GI50: 19.8 µM (inactive)
MCF7
  GI50: 16.4 µM (inactive)
Hs-578T
  GI50: 30.3 µM (inactive)
RPMI-8226
  GI50: 8.67 µM (inactive)
A549
  GI50: 86.9 µM (inactive)
HCT-116
  GI50: 31.3 µM (inactive)
SNB-19
  GI50: 33.3 µM (inactive)
SF-539
  GI50: 25.7 µM (inactive)
SW-620
  GI50: 24.7 µM (inactive)
COLO 205
  GI50: 31.8 µM (inactive)
SK-MEL-28
  GI50: 19.9 µM (inactive)
NCI/ADR-RES
  GI50: > 100 µM (inactive)
DU-145
  GI50: 22.1 µM (inactive)
IGROV-1
  GI50: 27.1 µM (inactive)
NCI-H23
  GI50: 31.3 µM (inactive)
NCI-H460
  GI50: 29.3 µM (inactive)
A498
  GI50: 43.6 µM (inactive)
OVCAR-8
  GI50: 41.5 µM (inactive)
SK-MEL-2
  GI50: 20.5 µM (inactive)
UO-31
  GI50: 57.3 µM (inactive)
NCI-H522
  GI50: 15.9 µM (inactive)
Malme-3M
  GI50: 27.9 µM (inactive)
OVCAR-4
  GI50: 18.4 µM (inactive)
HT-29
  GI50: 39.8 µM (inactive)
MDA-MB-435
  GI50: 29.5 µM (inactive)
UACC-257
  GI50: 20.3 µM (inactive)
KM12
  GI50: 20.4 µM (inactive)
MDA-N
  GI50: 29.4 µM (inactive)
